Measurements taken from US20260373248A1, “DEGRADABLE PEPTOIDS” (Medici Therapeutics, Inc., priority 2023, published 2026).
Starred links: 1 amine or outer side, 2 acyl side, 3 side chain; linkers in the order of their positions; H or OH if unused. Non-standard residues stand in square brackets, D forms with d. Residues, ends and D or L forms follow the SMILES beside them. *: point of attachment. Gly(N-(3-decanoyloxypropyl)) = CCCCCCCCCC(=O)OCCCNCC(=O)O; N(3-lauroyloxypropyl)Gly = CCCCCCCCCCCC(=O)OCCCNCC(=O)O; N(2-decanoyloxyethyl)Gly = CCCCCCCCCC(=O)OCCNCC(=O)O; Gly(N-(CH2)3O-octanoyl) = CCCCCCCC(=O)OCCCNCC(=O)O; N(3-imidazol-1-ylpropyl)Gly = O=C(O)CNCCCn1ccnc1; Gly(N-3-morpholinopropyl) = O=C(O)CNCCCN1CCOCC1; N(2-ethylhexyl)Gly = CCCCC(CC)CNCC(=O)O; X2 = CCCCCCC(CCCC)CN(CC(=O)[*:2])[*:1]; Gly(N-dodecyl) = CCCCCCCCCCCCNCC(=O)O; N(CH(CH2OH)2)Gly = O=C(O)CNC(CO)CO; NDecylGly = CCCCCCCCCCNCC(=O)O; NHexGly = CCCCCCNCC(=O)O; For = O=C*

Tests used:
mRNA = mRNA encapsulation (modified Quant-iT RiboGreen assay); assay type: physicochemical; details: for mean percent encapsulation of RNA: RiboGreen, without vs with Triton X-100; for % Encapsulation: mRNA
How it was run: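 Encapsulated fraction was calculated by comparing RiboGreen signal (excitation 485 nm, emission 530 nm) of intact particles with that of particles lysed by a 10-min Triton X-100 treatment. Total mRNA concentration was taken from the lysed samples.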

firefly luciferase = assay: In vivo firefly luciferase expression after intravenous injection of fLuc mRNA delivery vehicles (IVIS imaging); parameters: species or system female Balb/c mice; details: for Total Flux (luciferase expression): fLuc mRNA, intravenous, Balb/c mice; for Total Flux: mice, 2.5 ug fLuc mRNA intravenously, 6 hours post-injection
How it was run: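 Read-out is total photon flux per region of interest, from whole-body IVIS images taken 10 minutes after IP D-luciferin (30 mg/mL, 10 μL/g) and from excised organs. Female Balb/c mice aged 6-8 weeks received 2.5 ug fLuc mRNA Nutshells intravenously 6 hours before imaging.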

[1] = Delivery vehicle size and polydispersity by dynamic light scattering; assay type: physicochemical
How it was run: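 Dynamic light scattering in PBS gave size and polydispersity of peptoid LNPs. These were dialyzed overnight at 4 °C into tris-sucrose buffer pH 7.4 after microfluidic 1:3 volume mixing of mRNA in pH 5.0 citrate with ethanol lipids (peptoid:DSPC:cholesterol:DMG-PEG2000 20:1.79:7.16:1.84 w/w).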

hEPO = assay: Quantification of hEPO in serum after IV injection of mRNA (Human EPO ELISA); assay type: in vivo; details: Balb/c mice, 2.5 μg mRNA IV, serum after 6 hours
How it was run: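 Balb/c mice received 2.5 μg mRNA encoding human EPO by IV injection; serum was collected after 6 hours. hEPO was measured by sandwich ELISA (biotin-conjugate, streptavidin-HRP, TMB, A450) against kit standards (mIU/mL) and an external standard (ng/mL), with values interpolated and corrected for dilution.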

[2] = Peptoid quantity remaining in liver by HPLC-TOF mass spectrometry; assay type: in vivo; details: liver homogenate
How it was run: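 Whole liver weighed; 20 mg tissue bead-homogenized in IPA/MeOH (8/2) with internal standard, centrifuged, supernatant run on BEH C8 HPLC-TOF MS. Peptoid concentration derived from linear calibration curve (0.2-50 μg/g) prepared in spiked untreated liver.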

luciferase = assay: Luciferase expression after local (intramuscular or subcutaneous) administration of mRNA; assay type: in vivo; details: mRNA 0.01 mpk, 6 hours; for IM Flux: intramuscular; for SC Flux: subcutaneous
How it was run: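 Bioluminescence read 6 hours after fLuc mRNA dosing (peptoid Nutshells; 0.01 mpk S.C. or I.M., 0.1 mpk intratumoral) in female Balb/c mice aged 6-8 weeks. D-luciferin injected IP, whole-body imaging after 10 minutes, then organ imaging; total photon flux per region of interest.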

[3] = DLS in PBS, peptoid:DSPC:Cholesterol:DMG-PEG2000 weight ratio 20:1.79:7.16:1.84, mRNA

Compound	mean percent encapsulation of RNA (mRNA)	% Encapsulation (mRNA; formulation recipe F2)	Total Flux (luciferase expression) (firefly luciferase; formulation recipe F2)	Total Flux (firefly luciferase)	PDI [1, 3]	Particle Size [1, 3]	Particle Size ([1]; formulation recipe F2)	hEPO (hEPO)	% of injected dose remaining in liver [2]	IM Flux (luciferase)	SC Flux (luciferase)	% Encapsulation (mRNA; formulation recipe D22)	Total Flux (luciferase expression) (firefly luciferase; formulation recipe D22)	Particle Size ([1]; formulation recipe D22)	other results
CCCCCCCCCCCCN(C=O)CC(=O)N(CCCOC(=O)CCCCCCC)CC(=O)N(CC(=O)N(CCCN1CCOCC1)CC(=O)N(CC(=O)N(CCCOC(=O)CCCCCCC)CC(=O)N(CCCCCCCCCCCC)CC(N)=O)CC(CC)CCCC)CC(CC)CCCC (stereo not drawn) [Compound 116] (For-[Gly(N-dodecyl)][Gly(N-(CH2)3O-octanoyl)][N(2-ethylhexyl)Gly][Gly(N-3-morpholinopropyl)][N(2-ethylhexyl)Gly][Gly(N-(CH2)3O-octanoyl)][Gly(N-dodecyl)]-NH2)	32.6%	67.8%	1.60E+09 p/s	3.82E+09 p/s	1.000	88.9 nm	71.4 nm	269 ng/mL	15.67%	7.83E+07 p/s	3.53E+08 p/s				
CCCCCCCCCCN(CC(=O)N(CC(=O)N(CCCOC(=O)CCCCCCCCC)CC(N)=O)CC(CC)CCCC)C(=O)CN(CC(CC)CCCC)C(=O)CN(CCCOC(=O)CCCCCCCCC)C(=O)CN(CC(CC)CCCC)C(=O)CNC(CO)CO (stereo not drawn) [Compound 58] (H-[N(CH(CH2OH)2)Gly][N(2-ethylhexyl)Gly][Gly(N-(3-decanoyloxypropyl))][N(2-ethylhexyl)Gly][NDecylGly][N(2-ethylhexyl)Gly][Gly(N-(3-decanoyloxypropyl))]-NH2)	78.1%			3.94E+09 p/s	0.159	70.4 nm		386 ng/mL	−1.37%	5.53E+08 p/s	1.99E+07 p/s	78.1%	3.94E+09 p/s	70.4 nm	% Encapsulation (mRNA; formulation recipe O5): 92.8%; % Encapsulation (mRNA; formulation recipe O8): 92.9%; Total Flux (luciferase expression) (firefly luciferase; formulation recipe O5): 5.84E+08 p/s; Total Flux (luciferase expression) (firefly luciferase; formulation recipe O8): 1.02E+09 p/s; Particle Size ([1]; formulation recipe O5): 56.3 nm; Particle Size ([1]; formulation recipe O8): 57.5 nm
CCCCCCCC(=O)OCCCN(CC(=O)N(CC(=O)N(CC(=O)N(CCCOC(=O)CCCCCCC)CC(=O)N(CC(N)=O)CC(CCCC)CCCCCC)CC(CC)CCCC)CC(CCCC)CCCCCC)C(=O)CN(CC(CC)CCCC)C(=O)CNC(CO)CO (stereo not drawn) [Compound 104] (H-[N(CH(CH2OH)2)Gly][N(2-ethylhexyl)Gly][Gly(N-(CH2)3O-octanoyl)][X2][N(2-ethylhexyl)Gly][Gly(N-(CH2)3O-octanoyl)][X2]-NH2)	93.6%			4.50E+09 p/s	0.092	78.8 nm		693 ng/mL	7.45%	1.34E+08 p/s	1.93E+08 p/s				
CCCCCCCCCC(=O)OCCCN(CC(=O)N(CCCOC(=O)CCCCCCCCC)CC(=O)N(CCCCCC)CC(=O)N(CCCOC(=O)CCCCCCCCC)CC(=O)N(CCCOC(=O)CCCCCCCCC)CC(=O)N(CCCCCC)CC(N)=O)C(=O)CN(C=O)CCCN1CCOCC1 [Compound 108] (For-[Gly(N-3-morpholinopropyl)][Gly(N-(3-decanoyloxypropyl))][Gly(N-(3-decanoyloxypropyl))][NHexGly][Gly(N-(3-decanoyloxypropyl))][Gly(N-(3-decanoyloxypropyl))][NHexGly]-NH2)	49.9%	60.1%	1.47E+09 p/s	4.91E+09 p/s	0.263	96.7 nm	95.3 nm	377 ng/mL	7.35%	1.25E+08 p/s	1.74E+08 p/s				
CCCCCCCCCC(=O)OCCN(CC(N)=O)C(=O)CN(CCOC(=O)CCCCCCCCC)C(=O)CN(CC(CC)CCCC)C(=O)CN(CCOC(=O)CCCCCCCCC)C(=O)CN(CCOC(=O)CCCCCCCCC)C(=O)CN(CC(CC)CCCC)C(=O)CNC(CO)CO (stereo not drawn) [Compound 105] (H-[N(CH(CH2OH)2)Gly][N(2-ethylhexyl)Gly][N(2-decanoyloxyethyl)Gly][N(2-decanoyloxyethyl)Gly][N(2-ethylhexyl)Gly][N(2-decanoyloxyethyl)Gly][N(2-decanoyloxyethyl)Gly]-NH2)	73.2%			1.05E+10 p/s	0.150	75.9 nm		580 ng/mL	7.51%	2.85E+08 p/s	9.57E+08 p/s	73.2%	1.05E+10 p/s	75.9 nm	% Encapsulation (mRNA; formulation recipe R1): 92.7%; % Encapsulation (mRNA; formulation recipe R4): 73.1%; % Encapsulation (mRNA; formulation recipe R5): 94.6%; % Encapsulation (mRNA; formulation recipe R9): 94.0%; % Encapsulation (mRNA; formulation recipe R10): 93.2%; Total Flux (luciferase expression) (firefly luciferase; formulation recipe R1): 4.15E+08 p/s; Total Flux (luciferase expression) (firefly luciferase; formulation recipe R4): 2.47E+09 p/s; Total Flux (luciferase expression) (firefly luciferase; formulation recipe R5): 1.28E+09 p/s; Total Flux (luciferase expression) (firefly luciferase; formulation recipe R9): 1.56E+09 p/s; Total Flux (luciferase expression) (firefly luciferase; formulation recipe R10): 2.70E+09 p/s; Particle Size ([1]; formulation recipe R1): 55.6 nm; Particle Size ([1]; formulation recipe R4): 59.6 nm; Particle Size ([1]; formulation recipe R5): 63.5 nm; Particle Size ([1]; formulation recipe R9): 64.9 nm; Particle Size ([1]; formulation recipe R10): 68.6 nm
CCCCCCCCCCCC(=O)OCCCN(CC(=O)N(CC(=O)N(CCCCCC)CC(=O)N(CCCOC(=O)CCCCCCCCCCC)CC(=O)N(CC(=O)N(CCCCCC)CC(N)=O)CC(CC)CCCC)CC(CC)CCCC)C(=O)CNCCCn1ccnc1 (stereo not drawn) [Compound 72] (H-[N(3-imidazol-1-ylpropyl)Gly][N(3-lauroyloxypropyl)Gly][N(2-ethylhexyl)Gly][NHexGly][N(3-lauroyloxypropyl)Gly][N(2-ethylhexyl)Gly][NHexGly]-NH2)	89.2%			1.71E+08 p/s	0.139	106.8 nm		36 ng/mL	11.32%	9.25E+06 p/s	3.73E+07 p/s				
